Measurements taken from patent US7951359B2, “Compositions and methods for therapy or prevention of chemotherapy-induced neuropathy” (Merck Serono SA, priority 2004, dated 2011).
Like-named read-outs stand apart in the source and are kept apart here.

Columns and labels:
[1] = test system: cisplatin induced neuropathy; experiment: Hot plate test, therapeutic treatment of established cisplatin neuropathy; assay type: in vivo, rat
[2] = test system: cisplatin induced neuropathy; experiment: Morphometric analysis, therapeutic treatment of established cisplatin neuropathy; assay type: in vivo, rat; details: for proportion of degenerated fibers versus control: p≦0.05
From the text: The number of degenerated and non-degenerated fibers on the entire surface of each nerve section was counted by an operator in a blinded fashion. All the results (except the data expressed as ratio value) were reported as percentage of changes in reference to the control value.

[3] = test system: cisplatin induced neuropathy; experiment: Hot plate test in cisplatin-treated rats, co-administration; assay type: in vivo, rat
Description: The rat was placed inside a glass cylinder of 17 cm height and 21 cm diameter on a heating-plate maintained at 52° C. (Medite OTS 40, Microm, Francheville, Rhône, France). The animal behavior was observed, particularly the licking of a foot and the adjusted leap. The latency before licking a foot or before jumping to escape the heat (adjusted leap) was recorded. The time needed to feel the thermal pain is related to the thermal sensitivity and tends to increase when thermal sensitivity is altered.

[4] = test system: lung (SK-MES1) tumor cell line; experiment: Cell survival by acid phosphatase activity assay, SK-MES1; assay type: cell-based, human
Description: (§1) The human lung (SK-MES1) and breast (MCF7) tumor cell lines were obtained from ATCC. The cell lines were maintained in Dulbecco's MEM medium (Gibco; Invitrogen, Cergy-Pontoise, France, ref. 41965039) supplemented with 1% antibiotic/antimicotic mixture solution (Gibco, ref. 15240062), and 10% heat-inactivated foetal bovine serum (Gibco, ref. F7524, batch 92K3387). The cells were amplified in Nunc tissue culture flasks (80 cm2) in a humidified incubator at 37° C. with 5% CO2 in 95% air. Cultures were sub-cultured twice a week.
(§2) The enzymatic activity has been proven to be proportional to the number of living cells (Ueda et al.; 1994).
(§3) Three days after the last replication, tumor cells were seeded in 96 well-plates (TPP, VWR International, Fontenay-sous-bois, France) at a density of 1,500 cells (MCF7 line) or 3,000 cells (SK-MES1 line) per well, in a total volume of 100 μl/well and incubated overnight in a humidified incubator at 37° C. with 5% CO2 in 95% air. […] IL-6 (in buffer solution at 1.8 mg/ml, PH: 7) was immediately added at concentrations of 0, 3, 12, 50 or 200 ng/ml.
(§4) Four days after the initiation of the intoxication, acid phosphatase activity (Example 21) in each cell culture was assessed.
(§5) After removal of the culture medium, cells were rinsed with phosphate-buffered saline (PBS, Gibco, ref. 14190-094) and further incubated for 90 min at 37° C. in 100 μl of buffer containing 0.1 mol/l sodium acetate (pH 5.5), 0.1% Triton X100 (Sigma, ref. T9284) and 10 mmol/l p-nitrophenyl phosphate (Sigma, ref. N9389). Reaction was stopped by addition of 10 μl of 1 mol/l sodium hydroxide aqueous solution (Laboratoire de Produit Chimiques de la Robertsau, Strasbourg, France; ref. 28.252.293). Absorbance of the colored solution was measured at 405 nm in a microplate reader (Labsystems Multiskan Bichromatic, EST-LAB, Strasbourg, France).
(§6) The results were expressed as percentage of optical density of the control cell cultures. The heights of the columns represent mean±SEM of percentages of 5-6 wells from two independent cultures.

[5] = test system: cisplatin induced neuropathy; assay type: in vivo, rat
Description: Electrophysiological monitoring in cisplatin-induced neuropathy model was carried out as described in Example 17. The objective was to assess the effect of co-administration with IL-6 in cisplatin-induced loss of fiber/nerve function.
Electrophysiological recordings were performed using a Neuromatic 2000M electromyograph (EMG) (Dantec, Les Ulis, France). Rats were anaesthetized by IP injection of 60 mg/kg ketamine chlorhydrate (Imalgene 500®, Rhône Merieux, Lyon, France). The normal body temperature was maintained around […] with a heating lamp and verified using a contact thermometer (Quick, Bioblock Scientific, Illkirch, France) placed on the tail surface.
Compound muscle action potential (CMAP) of M wave signal (or electrically evoked muscle potential) was recorded in the gastrocnemius muscle after stimulation of the sciatic nerve. M wave reflects the current developed during the action potential of muscle fibers. A reference electrode and an active needle were placed in the hind paw. A ground needle was inserted on the lower back of the rat. Sciatic nerve was stimulated with a single 0.2 ms pulse at supramaximal intensity. The […] of the motor wave was recorded and expressed in ms.
Sensitive nerve conduction velocity (SNCV) was also recorded. The tail skin electrodes were placed as follows: a reference needle inserted at the base of the tail and an anode needle placed 30 mm away from the reference needle toward the extremity of the tail. A ground needle electrode was inserted between the anode and reference needles. The caudal nerve was stimulated with a series of 20 pulses (for 0.2 ms) at an intensity of 12.8 mA. The velocity was expressed in m/s.
H-wave reflex was recorded in the hind footpad muscle after stimulation of the sciatic nerve. A reference electrode and a ground needle were placed on the lower back of the rat. The sciatic nerve was stimulated with a single 0.2 ms pulse at supramaximal intensity. The amplitude (mV) of H wave and the proportion of animal lacking H wave response were the parameters studied.

[6] = test system: breast (MCF7) tumor cell line; experiment: Cell survival by acid phosphatase activity assay, MCF7; assay type: cell-based, human
Description: as §1, §2, §3, §4, §5, §6

[7] = cisplatin alone, 3 weeks after cessation of cisplatin
[8] = cisplatin (2.5 μM), carboplatin (25 μM), 4 days
[9] = IL-6 3, 12, 50 or 200 ng/ml, p>0.05

Compound: N.N.[Cl][Pt][Cl] [cisplatin, Cis-dichlorodiamine platinum]
- hot plate first reaction to heat versus control ([1]; cisplatin alone, during and 3 weeks post-cisplatin): significant delayed first reaction to heat
- proportion of non-degenerated myelinated fibers versus control [2, 7]: lower
- proportion of degenerated fibers versus control [2, 7]: significantly higher
- proportion of non-degenerated myelinated fibers versus control ([2]; cisplatin alone, day 23): lower
- proportion of degenerated fibers versus control ([2]; cisplatin alone, day 23): significant greater proportion of degenerated fibers
- myelin area ([2]; cisplatin alone, day 44, p>0.05): slight but not significant reduction
- overall size of myelin versus control ([2]; cisplatin alone, up to day 23, not significant (p>0.05)): slightly reduced
- hot plate first reaction to heat versus control ([3]; cisplatin alone, from 3 weeks): significant delayed first reaction to heat
- decrease in cell survival versus control [4, 8]: about 50%
- SNCV versus non-treated control ([5]; rat, in vivo): significantly slow
- reduction of H wave amplitude ([5]; rat, in vivo): about 80%
- decrease in cell survival versus control [6, 8]: about 50%

Compound: IL-6: Recombinant human IL-6 produced in genetically engineered Chinese Hamster Ovary (CHO) cells
- time of the first reaction to heat, significance ([1]; IL-6 10 μg/kg, 2 weeks after IL-6 treatment, p≦0.05): Significant results
- time of the first reaction to heat ([1]; IL-6 3 and 10 μg/kg SC daily from day 23, two weeks after initiation, p≦0.05): overall reduction in the time of the first reaction
- cisplatin-induced myelin sheath thinning ([2]; IL-6 10 μg/kg): appeared to reverse cisplatin-induced myelin sheath thinning
- percentage of degenerated fibers, significance ([2]; IL-6 10 μg/kg): significant effect
- large/small fibers ratio ([2]; IL-6 treatment): slight increase
- percentage of degenerated fibers ([2]; IL-6 treatment (3 and 10 μg/kg)): significantly reduced the percentage of degenerated fibers
- restoring myelin and fiber degeneration compared with 4-MC ([2]; IL-6 vs 4-MC): more efficient than 4-MC
- delay of the first reaction to heat by cisplatin ([3]; IL-6 10 μg/kg SC daily): fully prevented
- delay of the first reaction to heat by cisplatin ([3]; IL-6 0.3, 1, 3, 10 μg/kg SC daily, p≦0.05): prevented/reduced delay of the first reaction to heat
- survival of vincristine or cisplatine treated cells in the presence of IL-6 [4, 9]: did not change significantly
- survival of carboplatin-intoxicated cells in the presence of IL-6 ([4]; IL-6 3, 12, 50 or 200 ng/ml, significant): decrease of survival
- effect of taxol on cell survival with IL-6 ([4]; IL-6 3-200 ng/ml, p>0.05): did not change the effect of taxol
- survival of cells intoxicated with carboplatin and taxol in the presence of IL-6 ([4]; p>0.05): remained unchanged
- loss of H wave amplitude by cisplatin ([5]; IL-6 10 μg/kg SC daily, throughout the experiment): fully prevented the loss of H wave amplitude
- loss of H wave amplitude by cisplatin ([5]; IL-6 0.3, 1, 3, 10 μg/kg SC daily): reduce/prevent the loss of H wave amplitude
- SNCV in cisplatin treated rats ([5]; IL-6, especially at 3 and 10 μg/kg, after 5 weeks): improve SNCV
- prevention of cisplatin-induced loss of fiber/nerve function compared with 4-MC ([5]; IL-6 vs 4-MC 10 μg/kg IP): more effective in preventing cisplatin-induced loss of fiber/nerve function than 4-MC
- survival of vincristine or cisplatine or carboplatin treated cells in the presence of IL-6 [6, 9]: did not change significantly
- effect of taxol on cell survival with IL-6 ([6]; IL-6 3-200 ng/ml, p>0.05): did not change the effect of taxol
- survival of cells intoxicated with carboplatin and taxol in the presence of IL-6 ([6]; p>0.05): remained unchanged
